Patent publication US20220040136A1, “TREATMENT OF VULVOVAGINAL DISORDERS” (University of Rochester, priority 2018, published 2022)

Tests used:
Type in all cases: cell-based
human vulvar fibroblasts [1] = experiment: In vitro LPV model: SPM post-treatment of already activated patient fibroblasts, IL-6 and PGE2; settings: post-treatment: IL-1β 30 min, then 5 nM SPM 18 hours, booster dose 6 hr
Experimental: (§1) FIGS. 5A, 5B, 5C, and 5D are a set of diagrams showing that PGE2 and IL-6 production is reduced by SPMs. Patient vestibular or vulvar fibroblasts were pre-treated for 10 hours with Lipoxin A4 (LxA4), Resolvin D2 (RvD2), (7R)-Maresin 1 or epi(7S)-Maresin 1 at a 5 nM concentration, then activated with IL-1β (Panel A; 10 pg/ml) or bradykinin (Panel B; 100 nM) for 48 hr. Culture media were collected and analyzed for PGE2 (Panel A) or IL-6 (Panel B) content. Patient fibroblasts were also activated first with IL-1β for 30 min then treated with 5 nM (7R)-Maresin 1 or LXA4 for 18 hours, followed by a booster dose for 6 hr. Culture media were collected and analyzed for PGE2 (Panel C) or IL-6 (Panel D) content. Mean+/−SEM of n=3, ANOVA *p<0.05 vs. activation only (no SPM).
FIGS. 24A and 24B are diagrams showing that six SPMs are effective in reducing IL-6 and PGE2 production from fibroblasts when used as a post-treatment. Patient vestibular or vulvar fibroblasts were activated first with IL-1β for 30 min then treated with RvD3, RvD4, RvD5, RvE1, Protectin D1 or Protectin DX at a 5 nM concentration for 18 hours, followed by a booster SPM dose for 24 hr. Culture media were collected and analyzed for IL-6 (Panel A) and PGE2 (Panel B) content. Mean+/−SEM of n=6 (two cases run in triplicate), ANOVA *p<0.05 vs. activation only (IL-1b). […] The magnitude of reduction was not as great as pre-treatment, but equally significant as the reduction from pre-treatment regimens.
(§2) In this example, a fibroblast-based in vitro LPV model was established. Briefly, fibroblast strains were obtained from two regions (FIG. 1) of the lower genital tract of localized provoked vulvodynia (LPV) cases and pain-free controls in the manner described in Falsetta et al. Am J Obstet Gynecol 2015, vol. 213, pp. 38 e1-12 and Foster et al., Pain 2015, vol. 156, pp. 386-96.
(§3) Over 30 paired fibroblast strains obtained from LPV-afflicted cases (fulfilling Friedrich's Criteria)^25 and age/race-matched (critical variables influencing LPV),^26, 27 pain-free controls were obtained. All subjects who contributed to the library were premenopausal, denied oral corticosteroids, non-steroidal, immunomodulatory, or anti-inflammatory medication use, and reported an absence of systemic/cutaneous inflammatory conditions at the time of sample collection. Mechanical pain thresholds were determined (via a method of limits) (0.5-5 N) using a Wagner algometer. Fibroblast identity was confirmed by microscopy and fibroblast markers (vimentin, collagen); only low passage (˜4) cells are used.
(§4) Synthesized, purified and commercially available SPMs from each known SPM class (E-series Resolvins, D-series Resolvins, Maresins, Protectins and Lipoxins) at low/nanomolar concentrations (1-100 nM) were tested. […] The inventors used one of two treatment regimens proven effective in vulvar fibroblasts and other cells: 1) overnight pre-treatment, followed by another treatment 30 min prior to stimulation with proinflammatory stimuli for 48 hr with a third dose of SPMs at 24 hr post-challenge, or 2) post-treatment with SPMs after a 30 min pre-treatment with inflammatory stimuli, followed by a booster dose 18 hr later. Both treatment regimens are of interest, as SPMs are active throughout the inflammatory process.^5-7 Even SPMs administered after LPV onset are likely to prevent the worsening or spread of LPV pain.

Mouse vulvar tissue = experiment: Mouse vulvar explants (4 mm punch biopsy), IL-1β-stimulated PGE2 production; settings: pre-treatment 18 hours, then IL-1β 10 pg/ml 18 hours; range of doses, as low as 1 nM; FIG. 6
Experimental: FIG. 6 is a diagram showing that SPMs inhibit PGE2 production from mouse vulvar tissue. Mouse vulvar tissue (4 mm punch biopsies) was collected and bisected then pre-treated in culture medium with either Maresin 1 or RvD2 at indicated concentrations for 18 hours, followed by an additional 18 hours stimulation with IL-1β (10 pg/ml). Culture medium was collected and analyzed for PGE2 content. Mean+/−SEM; n=3 replicate cultures. ANOVA * p<0.05 vs. vehicle.
Although SPM structure and therapeutic efficacy is conserved across species,^5-7 inventors first confirmed that mouse vulvar tissues responded to SPM treatment in vitro by culturing mouse vulvar explants (4 mm punch biopsy). The explants were stimulated with IL-1, and then assays were carried to assess the ability of Maresin 1 or RvD2 to reduce PGE2 production under the established pre-treatment regimen.

human vulvar fibroblasts [2] = experiment: In vitro LPV model: SPM pre-treatment of patient vestibular/vulvar fibroblasts before inflammatory stimulation, IL-6 and PGE2 by ELISA/EIA; settings: pre-treated 10 hours with 5 nM SPM, vestibular and external vulvar fibroblasts
Experimental: as §1
FIGS. 23A and 23B are diagrams showing six SPMs are effective in reducing IL-6 and PGE2 production from fibroblasts when used as a pre-treatment and post-treatment. Patient vestibular or vulvar fibroblasts were pre-treated for 18 h with Resolvin D3 (RvD3), Resolvin D4 (RvD4), Resolvin D5 (RvD5), Resolvin E1 (RvE1), Protectin D1 or Protectin DX at a 5 nM concentration, pre-treated again for 30 min prior to activation, then activated with 10 pg/ml IL-1β for 48 h with a booster SPM dose at 24 h. Culture media were collected and analyzed for IL-6 (Panel A) and PGE2 (Panel B). Mean+/−SEM of n=6 (two cases run in triplicate), ANOVA *p<0.05 vs. activation only (IL-1b).
as §2, §3, §4
Next, SPMs from other classes (E series Resolvins and Protectins), as well as additional SPMs from classes containing members that are effective in reducing IL-6 and PGE2 production (e.g., Maresins) were investigated in similar screen. […] SPMs that were effective in reducing more than one proinflammatory mediator in at least 2 tests can be examined for further testing using a preclinical mouse model. […] These additional effective SPMs include Resolvin D3, Resolvin D4, Resolvin D5, Resolvin E1, Protectin D1, and Protectin DX. […]

SMILES: CC/C=C\C/C=C\C[C@H](O)\C=C/C=C/C=C/[C@H](O)C/C=C\CCC(=O)O [Maresin 1, 7R,14S-docosa-4Z,8E,10E,12Z,16Z,19Z-hexaenoic acid]
- PGE2 levels (human vulvar fibroblasts [1]; FIG. 5C): significantly reduced
- IL-6 levels (human vulvar fibroblasts [1]; FIG. 5D): significantly reduced
- PGE2 responses following IL-1β treatment (Mouse vulvar tissue): significantly suppressed
- prostaglandin E2 (PGE2) production (human vulvar fibroblasts [2]; then IL-1β 10 pg/ml 48 hr, FIG. 5A): significantly reduced
- interleukin-6 (IL-6) production (human vulvar fibroblasts [2]; then bradykinin 100 nM 48 hr, FIG. 5B): significantly reduced
